Source: patent publication US20080146617A1, “Methods of treating inflammatory diseases” (Roche Palo Alto LLC, priority 2006, published 2008)
Where two headings read alike, the source gives them in different places.

Key:
Assay in all cases: KinomeScan kinase profiling
Type in all cases: binding
AMPK-alpha1 = biological target: T1, AMPK-alpha1 (Homo sapiens, UniProt Q13131)
T1 construct: purchased Ambit Biosciences (San Diego, Calif.)

CLK2 = biological target: T2, CLK2 (Homo sapiens, UniProt P49760)
T2 construct: purchased Ambit Biosciences (San Diego, Calif.)

CSNK1E = biological target: T3, CSNK1E (Homo sapiens, UniProt P49674)
T3 construct: purchased Ambit Biosciences (San Diego, Calif.)
T3 sequence (P49674 whole entry): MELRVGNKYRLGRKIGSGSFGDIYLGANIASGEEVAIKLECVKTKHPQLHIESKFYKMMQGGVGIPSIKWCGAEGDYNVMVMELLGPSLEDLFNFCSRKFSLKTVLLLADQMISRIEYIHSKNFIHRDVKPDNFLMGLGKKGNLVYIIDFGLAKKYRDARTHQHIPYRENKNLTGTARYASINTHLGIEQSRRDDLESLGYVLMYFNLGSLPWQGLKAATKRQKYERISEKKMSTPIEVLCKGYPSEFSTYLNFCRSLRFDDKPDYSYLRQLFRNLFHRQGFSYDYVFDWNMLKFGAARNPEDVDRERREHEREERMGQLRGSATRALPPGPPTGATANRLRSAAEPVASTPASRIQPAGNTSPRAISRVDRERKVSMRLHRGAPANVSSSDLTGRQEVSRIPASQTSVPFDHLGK

DAPK2 = biological target: T4, DAPK2 (Homo sapiens, UniProt Q9UIK4)
T4 construct: purchased Ambit Biosciences (San Diego, Calif.)

EPHA3 = biological target: T5, EPHA3 (Homo sapiens, UniProt P29320)
T5 construct: purchased Ambit Biosciences (San Diego, Calif.)

FGFR2 = biological target: T6, FGFR2 (Homo sapiens, UniProt P21802)
T6 construct: purchased Ambit Biosciences (San Diego, Calif.)

JAK2(Kin.Dom2) = biological target: T7, JAK2(Kin.Dom2) (Homo sapiens, UniProt O60674)
T7 construct: JAK2(Kin.Dom2); purchased Ambit Biosciences (San Diego, Calif.)

KIT = biological target: T8, KIT (Homo sapiens, UniProt P10721)
T8 construct: purchased Ambit Biosciences (San Diego, Calif.)
T8 sequence (P10721 26-976): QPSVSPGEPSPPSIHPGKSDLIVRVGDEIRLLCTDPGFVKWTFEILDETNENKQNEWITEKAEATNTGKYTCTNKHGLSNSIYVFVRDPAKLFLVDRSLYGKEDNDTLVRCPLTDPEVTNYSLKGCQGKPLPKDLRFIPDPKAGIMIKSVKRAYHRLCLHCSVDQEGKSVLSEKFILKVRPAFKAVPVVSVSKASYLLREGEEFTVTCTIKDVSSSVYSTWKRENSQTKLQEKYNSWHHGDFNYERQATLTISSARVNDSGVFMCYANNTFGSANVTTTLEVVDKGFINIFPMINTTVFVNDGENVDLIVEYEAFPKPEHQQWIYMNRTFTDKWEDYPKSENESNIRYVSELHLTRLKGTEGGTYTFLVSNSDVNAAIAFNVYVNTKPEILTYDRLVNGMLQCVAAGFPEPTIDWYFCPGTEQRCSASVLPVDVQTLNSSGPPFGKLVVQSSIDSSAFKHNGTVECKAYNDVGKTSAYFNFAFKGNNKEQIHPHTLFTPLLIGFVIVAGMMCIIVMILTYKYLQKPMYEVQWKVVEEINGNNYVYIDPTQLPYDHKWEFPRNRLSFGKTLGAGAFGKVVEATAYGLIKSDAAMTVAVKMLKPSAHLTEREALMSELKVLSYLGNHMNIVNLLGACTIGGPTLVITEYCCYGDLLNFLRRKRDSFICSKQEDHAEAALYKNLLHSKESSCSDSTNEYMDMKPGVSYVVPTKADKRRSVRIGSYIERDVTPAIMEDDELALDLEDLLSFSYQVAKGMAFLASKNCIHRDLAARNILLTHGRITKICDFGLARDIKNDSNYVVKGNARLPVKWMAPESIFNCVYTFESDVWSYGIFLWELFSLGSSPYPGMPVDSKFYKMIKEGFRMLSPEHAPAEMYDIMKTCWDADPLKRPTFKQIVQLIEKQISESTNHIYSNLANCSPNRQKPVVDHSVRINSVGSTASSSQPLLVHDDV

LCK = biological target: T9, LCK (Homo sapiens, UniProt P06239)
T9 construct: purchased Ambit Biosciences (San Diego, Calif.)

LIMK1 = biological target: T10, LIMK1 (Homo sapiens, UniProt P53667)
T10 construct: purchased Ambit Biosciences (San Diego, Calif.)

p38-beta = biological target: T11, p38-beta (Homo sapiens, UniProt Q15759)
T11 construct: purchased Ambit Biosciences (San Diego, Calif.)

PHKG1 = biological target: T12, PHKG1 (Homo sapiens, UniProt Q16816)
T12 construct: purchased Ambit Biosciences (San Diego, Calif.)

AURKC = biological target: T13, AURKC (Homo sapiens, UniProt Q9UQB9)
T13 construct: purchased Ambit Biosciences (San Diego, Calif.)
T13 sequence (Q9UQB9 whole entry): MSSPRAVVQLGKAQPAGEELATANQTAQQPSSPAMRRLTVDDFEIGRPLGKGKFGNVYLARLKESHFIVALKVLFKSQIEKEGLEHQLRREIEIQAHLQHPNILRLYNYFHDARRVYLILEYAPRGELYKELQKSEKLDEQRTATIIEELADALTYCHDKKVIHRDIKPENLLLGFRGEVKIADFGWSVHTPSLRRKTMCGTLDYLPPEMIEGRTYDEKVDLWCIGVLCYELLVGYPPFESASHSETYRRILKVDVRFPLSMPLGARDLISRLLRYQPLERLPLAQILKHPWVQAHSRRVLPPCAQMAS
Excerpt: (§1) The selectivity of a given CK1δ, CK1ε or CK1δ-CK1ε inhibitor compound can be determined by testing the compound against a panel of known kinases. An example of such a kinase profiling technology is the “KinomeScan” from Ambit Biosciences in which compounds can be screened for their modulatory activities against more than 200 known kinases.

CAMKK2 = biological target: T14, CAMKK2 (Homo sapiens, UniProt Q96RR4)
T14 construct: purchased Ambit Biosciences (San Diego, Calif.)
Excerpt: as §1

CSNK1G2 = biological target: T15, CSNK1G2 (Homo sapiens, UniProt P78368)
T15 construct: purchased Ambit Biosciences (San Diego, Calif.)
Excerpt: as §1

DMPK = biological target: T16, DMPK (Homo sapiens, UniProt Q09013)
T16 construct: purchased Ambit Biosciences (San Diego, Calif.)
Excerpt: as §1

EPHA4 = biological target: T17, EPHA4 (Homo sapiens, UniProt P54764)
T17 construct: purchased Ambit Biosciences (San Diego, Calif.)
Excerpt: as §1

EPHA8 = biological target: T18, EPHA8 (Homo sapiens, UniProt P29322)
T18 construct: purchased Ambit Biosciences (San Diego, Calif.)
Excerpt: as §1

ERK2 = biological target: T19, ERK2 (Homo sapiens, UniProt P28482)
T19 construct: purchased Ambit Biosciences (San Diego, Calif.)
T19 sequence (P28482 whole entry): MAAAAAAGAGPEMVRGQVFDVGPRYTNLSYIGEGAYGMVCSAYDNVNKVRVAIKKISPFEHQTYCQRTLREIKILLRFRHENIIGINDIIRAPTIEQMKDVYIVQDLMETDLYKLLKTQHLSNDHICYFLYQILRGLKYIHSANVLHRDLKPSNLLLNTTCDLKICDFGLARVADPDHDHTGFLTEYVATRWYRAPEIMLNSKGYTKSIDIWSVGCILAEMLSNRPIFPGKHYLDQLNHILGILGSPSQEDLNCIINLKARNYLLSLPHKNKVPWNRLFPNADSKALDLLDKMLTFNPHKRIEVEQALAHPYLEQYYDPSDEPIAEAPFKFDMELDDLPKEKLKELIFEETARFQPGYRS
Excerpt: as §1

FGFR1 = biological target: T20, FGFR1 (Homo sapiens, UniProt P11362)
T20 construct: purchased Ambit Biosciences (San Diego, Calif.)
Excerpt: as §1

HCK = biological target: T21, HCK (Homo sapiens, UniProt P08631)
T21 construct: purchased Ambit Biosciences (San Diego, Calif.)
T21 sequence (P08631 whole entry): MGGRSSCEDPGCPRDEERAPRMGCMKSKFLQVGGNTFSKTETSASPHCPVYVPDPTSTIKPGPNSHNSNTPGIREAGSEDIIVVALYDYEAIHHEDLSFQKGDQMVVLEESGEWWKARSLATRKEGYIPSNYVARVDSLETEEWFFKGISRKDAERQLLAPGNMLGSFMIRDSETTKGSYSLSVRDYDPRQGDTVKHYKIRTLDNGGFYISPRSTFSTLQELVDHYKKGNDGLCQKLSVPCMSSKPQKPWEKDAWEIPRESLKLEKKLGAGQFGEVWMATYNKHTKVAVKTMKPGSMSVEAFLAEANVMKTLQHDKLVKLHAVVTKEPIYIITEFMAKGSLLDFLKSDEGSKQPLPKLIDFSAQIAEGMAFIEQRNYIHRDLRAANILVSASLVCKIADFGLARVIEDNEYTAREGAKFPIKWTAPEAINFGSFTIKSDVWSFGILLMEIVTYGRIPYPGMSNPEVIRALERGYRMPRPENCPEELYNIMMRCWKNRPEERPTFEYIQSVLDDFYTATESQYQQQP
Excerpt: as §1

JNK1 = biological target: T22, JNK1 (Homo sapiens, UniProt P45983)
T22 construct: purchased Ambit Biosciences (San Diego, Calif.)
Excerpt: as §1

LTK = biological target: T23, LTK (Homo sapiens, UniProt P29376)
T23 construct: purchased Ambit Biosciences (San Diego, Calif.)
Excerpt: as §1

MAP4K5 = biological target: T24, MAP4K5 (Homo sapiens, UniProt Q9Y4K4)
T24 construct: purchased Ambit Biosciences (San Diego, Calif.)
Excerpt: as §1

MKNK2 = biological target: T25, MKNK2 (Homo sapiens, UniProt Q9HBH9)
T25 construct: purchased Ambit Biosciences (San Diego, Calif.)
Excerpt: as §1

PAK6 = biological target: T26, PAK6 (Homo sapiens, UniProt Q9NQU5)
T26 construct: purchased Ambit Biosciences (San Diego, Calif.)
Excerpt: as §1

PAK7/PAK5 = biological target: T27, PAK7/PAK5 (Homo sapiens, UniProt Q9P286)
T27 construct: purchased Ambit Biosciences (San Diego, Calif.)
T27 sequence (Q9P286 whole entry): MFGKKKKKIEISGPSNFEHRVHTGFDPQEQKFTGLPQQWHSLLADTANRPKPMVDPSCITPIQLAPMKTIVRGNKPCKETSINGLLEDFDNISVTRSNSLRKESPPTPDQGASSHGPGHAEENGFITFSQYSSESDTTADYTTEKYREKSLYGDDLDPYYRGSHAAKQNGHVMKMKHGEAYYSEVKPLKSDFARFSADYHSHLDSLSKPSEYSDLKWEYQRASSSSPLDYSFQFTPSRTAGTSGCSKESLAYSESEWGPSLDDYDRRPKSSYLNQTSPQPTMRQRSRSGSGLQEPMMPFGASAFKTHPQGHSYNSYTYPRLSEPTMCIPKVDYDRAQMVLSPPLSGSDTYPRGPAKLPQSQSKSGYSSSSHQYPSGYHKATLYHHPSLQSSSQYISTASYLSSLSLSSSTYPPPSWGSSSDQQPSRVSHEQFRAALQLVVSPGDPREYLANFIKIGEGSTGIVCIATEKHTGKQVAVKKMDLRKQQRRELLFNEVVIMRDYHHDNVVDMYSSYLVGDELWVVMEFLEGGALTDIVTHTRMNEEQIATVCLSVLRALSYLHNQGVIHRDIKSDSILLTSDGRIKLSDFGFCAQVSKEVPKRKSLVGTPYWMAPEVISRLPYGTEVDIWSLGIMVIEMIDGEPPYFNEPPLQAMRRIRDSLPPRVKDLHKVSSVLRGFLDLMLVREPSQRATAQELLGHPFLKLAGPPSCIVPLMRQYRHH
Excerpt: as §1

PDPK1 = biological target: T28, PDPK1 (Homo sapiens, UniProt O15530)
T28 construct: purchased Ambit Biosciences (San Diego, Calif.)
Excerpt: as §1

RPS6KA5 = biological target: T29, RPS6KA5 (Homo sapiens, UniProt O75582)
T29 construct: purchased Ambit Biosciences
Excerpt: as §1

SLK = biological target: T30, SLK (Homo sapiens, UniProt Q9H2G2)
T30 construct: purchased Ambit Biosciences
Excerpt: as §1

STK17B = biological target: T31, STK17B (Homo sapiens, UniProt O94768)
T31 construct: purchased Ambit Biosciences
T31 sequence (O94768 whole entry): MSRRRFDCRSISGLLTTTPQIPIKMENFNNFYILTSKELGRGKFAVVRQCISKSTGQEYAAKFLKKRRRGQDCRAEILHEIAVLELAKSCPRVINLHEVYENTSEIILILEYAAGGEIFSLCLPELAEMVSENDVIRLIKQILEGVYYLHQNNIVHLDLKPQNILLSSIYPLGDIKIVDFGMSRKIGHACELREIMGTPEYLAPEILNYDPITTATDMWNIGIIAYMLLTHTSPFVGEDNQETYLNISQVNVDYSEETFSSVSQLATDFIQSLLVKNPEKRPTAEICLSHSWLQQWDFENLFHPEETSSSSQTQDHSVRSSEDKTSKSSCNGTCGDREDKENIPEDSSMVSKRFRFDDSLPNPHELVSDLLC
Excerpt: as §1

STK36 = biological target: T32, STK36 (Homo sapiens, UniProt Q9NRP7)
T32 construct: purchased Ambit Biosciences
Excerpt: as §1

SYK = biological target: T33, SYK (Homo sapiens, UniProt P43405)
T33 construct: purchased Ambit Biosciences
Excerpt: as §1

TTK = biological target: T34, TTK (Homo sapiens, UniProt P33981)
T34 construct: purchased Ambit Biosciences
Excerpt: as §1

VEGFR2 = biological target: T35, VEGFR2 (Homo sapiens, UniProt P35968)
T35 construct: purchased Ambit Biosciences (San Diego, Calif.)
T35 sequence (P35968 20-1356): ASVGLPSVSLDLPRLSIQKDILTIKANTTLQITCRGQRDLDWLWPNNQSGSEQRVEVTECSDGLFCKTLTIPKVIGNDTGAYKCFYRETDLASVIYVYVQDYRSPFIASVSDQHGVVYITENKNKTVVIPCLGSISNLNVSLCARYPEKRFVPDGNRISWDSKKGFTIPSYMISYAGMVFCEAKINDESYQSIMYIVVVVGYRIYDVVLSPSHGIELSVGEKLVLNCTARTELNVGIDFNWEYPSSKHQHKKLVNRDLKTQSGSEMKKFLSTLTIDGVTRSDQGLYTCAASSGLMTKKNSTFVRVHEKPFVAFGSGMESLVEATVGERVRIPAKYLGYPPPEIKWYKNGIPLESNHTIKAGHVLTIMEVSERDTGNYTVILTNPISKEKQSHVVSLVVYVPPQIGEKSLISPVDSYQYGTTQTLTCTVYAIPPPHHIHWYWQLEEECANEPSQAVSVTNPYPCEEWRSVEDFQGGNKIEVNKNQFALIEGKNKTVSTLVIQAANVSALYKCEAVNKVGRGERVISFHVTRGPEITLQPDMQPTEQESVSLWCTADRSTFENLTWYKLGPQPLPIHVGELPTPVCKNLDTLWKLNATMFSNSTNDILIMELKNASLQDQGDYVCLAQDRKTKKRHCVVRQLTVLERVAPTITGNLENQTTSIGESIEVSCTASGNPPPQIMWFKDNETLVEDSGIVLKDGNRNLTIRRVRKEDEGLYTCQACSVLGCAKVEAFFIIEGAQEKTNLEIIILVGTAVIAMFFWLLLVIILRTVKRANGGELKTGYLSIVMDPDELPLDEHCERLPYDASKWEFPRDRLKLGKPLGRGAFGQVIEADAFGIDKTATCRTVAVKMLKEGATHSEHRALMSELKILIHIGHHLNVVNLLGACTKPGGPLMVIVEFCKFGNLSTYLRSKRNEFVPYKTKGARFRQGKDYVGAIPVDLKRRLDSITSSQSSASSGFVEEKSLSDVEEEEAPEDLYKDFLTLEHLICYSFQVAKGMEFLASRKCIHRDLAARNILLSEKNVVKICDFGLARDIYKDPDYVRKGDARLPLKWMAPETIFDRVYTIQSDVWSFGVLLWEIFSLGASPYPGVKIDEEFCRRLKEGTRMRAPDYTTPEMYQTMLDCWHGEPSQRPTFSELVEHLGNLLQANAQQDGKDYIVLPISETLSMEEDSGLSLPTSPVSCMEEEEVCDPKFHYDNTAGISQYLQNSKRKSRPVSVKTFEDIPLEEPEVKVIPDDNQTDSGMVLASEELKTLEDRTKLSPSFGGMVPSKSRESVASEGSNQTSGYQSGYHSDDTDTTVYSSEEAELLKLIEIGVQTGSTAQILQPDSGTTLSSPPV
Excerpt: as §1

RPS6KA2 = biological target: T36, RPS6KA2 (Homo sapiens, UniProt Q15349)
T36 construct: purchased Ambit Biosciences

RPS6KA3 = biological target: T37, RPS6KA3 (Homo sapiens, UniProt P51812)
T37 construct: purchased Ambit Biosciences

STK3 = biological target: T38, STK3 (Homo sapiens, UniProt Q13188)
T38 construct: purchased Ambit Biosciences

STK4 = biological target: T39, STK4 (Homo sapiens, UniProt Q13043)
T39 construct: purchased Ambit Biosciences

Row | Structure (SMILES) | inhibition at 10 µM (AMPK-alpha1) [%] | inhibition at 10 µM (CLK2) [%] | % Inhibition (CSNK1E; 10 μM, CSNK1E (CK1ε isoform)) [%] | inhibition at 10 µM (DAPK2) [%] | inhibition at 10 µM (EPHA3) [%] | inhibition at 10 µM (FGFR2) [%] | inhibition at 10 µM (JAK2(Kin.Dom2)) [%] | inhibition at 10 µM (KIT) [%] | inhibition at 10 µM (LCK) [%] | inhibition at 10 µM (LIMK1) [%] | inhibition at 10 µM (p38-beta) [%] | inhibition at 10 µM (PHKG1) [%] | inhibition at 10 µM (AURKC) [%] | inhibition at 10 µM (CAMKK2) [%] | inhibition at 10 µM (DMPK) [%] | inhibition at 10 µM (EPHA4) [%] | inhibition at 10 µM (EPHA8) [%] | inhibition at 10 µM (ERK2) [%] | inhibition at 10 µM (FGFR1) [%] | inhibition at 10 µM (HCK) [%] | further results
1 | NC(=O)c1ccc(-c2nc(-c3ccc4c(c3)OCO4)c(-c3ccccn3)[nH]2)cc1 [SB431542, 4-(4-benzo-[1,3]dioxol-5-yl-5-pyridin-2-yl-1H-imidazol-2-yl)benzamide] | < 50 | < 50 | 100 | < 50 | < 50 | < 50 | < 50 | < 50 | < 50 | < 50 | < 50 | < 50 | < 50 | < 50 | < 50 | < 50 | < 50 | < 50 | < 50 | < 50 | inhibition at 10 µM (CSNK1E; 10 μM, CSNK1E (CK1ε isoform), read-out: % Inhibition): 100%; inhibition at 10 µM (CSNK1G2; 10 μM, CSNK1G2, read-out: % Inhibition): < 50%; inhibition at 10 µM (JNK1): < 50%; inhibition at 10 µM (LTK): < 50%; inhibition at 10 µM (MAP4K5): < 50%; inhibition at 10 µM (MKNK2): < 50%; inhibition at 10 µM (PAK6): < 50%; inhibition at 10 µM (PAK7/PAK5): < 50%; inhibition at 10 µM (PDPK1): < 50%; inhibition at 10 µM (RPS6KA5): < 50%; inhibition at 10 µM (SLK): < 50%; inhibition at 10 µM (STK17B): < 50%; inhibition at 10 µM (STK36): < 50%; inhibition at 10 µM (SYK): < 50%; inhibition at 10 µM (TTK): < 50%; inhibition at 10 µM (VEGFR2): < 50%; inhibition at 10 µM (RPS6KA2): < 50%; inhibition at 10 µM (RPS6KA3): < 50%; inhibition at 10 µM (STK3): < 50%; inhibition at 10 µM (STK4): < 50%
2 | NC(=O)c1ccc(-c2nc(-c3ccc4c(c3)OCCO4)c(-c3ccccn3)[nH]2)cc1 [D4476, 4-[4-(2,3-Dihydro-benzo[1,4]dioxin-6-yl)-5-pyridin-2-yl-1H-imidazol-2-yl]benzamide] | < 50 | < 50 | 100 | < 50 | < 50 | < 50 | < 50 | < 50 | < 50 | < 50 | < 50 | < 50 | < 50 | < 50 | < 50 | < 50 | < 50 | < 50 | < 50 | < 50 | inhibition at 10 µM (CSNK1E): 100%; inhibition at 10 µM (CSNK1G2): < 50%; inhibition at 10 µM (JNK1): < 50%; inhibition at 10 µM (LTK): < 50%; inhibition at 10 µM (MAP4K5): < 50%; inhibition at 10 µM (MKNK2): < 50%; inhibition at 10 µM (PAK6): < 50%; inhibition at 10 µM (PAK7/PAK5): < 50%; inhibition at 10 µM (PDPK1): < 50%; inhibition at 10 µM (RPS6KA5): < 50%; inhibition at 10 µM (SLK): < 50%; inhibition at 10 µM (STK17B): < 50%; inhibition at 10 µM (STK36): < 50%; inhibition at 10 µM (SYK): < 50%; inhibition at 10 µM (TTK): < 50%; inhibition at 10 µM (VEGFR2): < 50%; inhibition at 10 µM (RPS6KA2): < 50%; inhibition at 10 µM (RPS6KA3): < 50%; inhibition at 10 µM (STK3): < 50%; inhibition at 10 µM (STK4): < 50%
